Reference: ChEMBL document CHEMBL5725892, “Triazolo[4,5-D]pyrimidine derivatives” (2017)

Molecular target: Cannabinoid receptor 2 (Homo sapiens, UniProt P34972)
Experiment: cAMP Assay: CHO cells expressing human CB1 or CB2 receptors are seeded 17-24 hours prior to the experiment 50.000 cells per well in a black 96 well plate with flat clear bottom (Corning Costar #3904) in DMEM (Invitrogen No. 31331), 1×HT supplement, with 10% fetal calf serum and incubated at 5% CO2 and 37° C. in a humidified incubator. The growth medium was exchanged with Krebs Ringer Bicarbonate buffer with 1 mM IBMX and incubated at 30° C. for 30 min. Compounds were added to a final assay volume of 100 μl and incubated for 30 min at 30° C. Using the cAMP-Nano-TRF detection kit the assay (Roche Diagnostics) was stopped by the addition of 50 μl lysis reagent (Tris, NaCl, 1.5% Triton X100, 2.5% NP40, 10% NaN3) and 50 μl detection solutions (20 μM mAb Alexa700-cAMP 1:1, and 48 μM Ruthenium-2-AHA-cAMP) and shaken for 2 h at room temperature. The time-resolved energy transfer is measured by a TRF reader (Evotec Technologies GmbH), equipped with a ND:YAG laser as excitation source. The plate is measured twice with the excitation at 355 nm and at the emission with a delay of 100 ns and a gate of 100 ns, total exposure time 10 s at 730 (bandwidth 30 nm) or 645 nm (bandwidth 75 nm), respectively. […]

Chain of Cannabinoid receptor 2 (P34972 whole entry): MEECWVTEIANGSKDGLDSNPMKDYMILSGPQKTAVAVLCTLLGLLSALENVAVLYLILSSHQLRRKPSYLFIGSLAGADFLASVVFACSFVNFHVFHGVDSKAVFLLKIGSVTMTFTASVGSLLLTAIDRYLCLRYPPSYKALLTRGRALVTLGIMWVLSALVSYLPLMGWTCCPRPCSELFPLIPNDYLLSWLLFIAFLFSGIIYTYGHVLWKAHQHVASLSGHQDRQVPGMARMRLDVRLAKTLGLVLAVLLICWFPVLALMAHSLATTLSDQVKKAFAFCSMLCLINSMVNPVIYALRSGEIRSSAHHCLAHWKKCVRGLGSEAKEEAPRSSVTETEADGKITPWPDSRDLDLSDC

## CC(=O)N[C@H]1CCN(c2nc(O[C@@H](C)C(F)(F)F)nc3c2nnn3Cc2ccccc2C(F)(F)F)C1
  EC50: 78.9 nM
